The values below come from the SangsterLogP compilation.

For orientation: logP means the decadic logarithm of the partition coefficient of the neutral form, usually between octanol and water. Read a low logP as a more hydrophilic compound. In turn, `FC(F)(F)F` yielded a logP of 1.36.

In turn, `FC(F)C(F)(F)F` displayed a log partition coefficient (logP) of 1.45.

With `FC(Cl)(Cl)Cl`, the log partition coefficient (logP) came out at 2.26.

In turn, `FC(C(F)(F)F)C(F)(F)F` gave a log partition coefficient (logP) of 2.22.

The compound `FC(F)=C(F)C(F)(F)F` returned a logP of 1.98.

`FCC(F)(F)Cl` displayed a logP of 1.45.

Consider `FCC(F)Cl` (stereo unspecified), for which the lipophilicity (logP) was found to be 1.62.

Regarding `FC(F)=CCl`, the logP is 1.52.

In turn, `CC(F)(Cl)Cl` gave a logP of 1.95.

For the compound `FCC(F)(F)F`, the log partition coefficient (logP) came to 1.06.

With `FC(Cl)C(F)(F)F` (stereo unspecified), the logP was 1.75.
